This note sets out measurements from patent publication US12331035B2, “Bicyclic compound and use thereof” (SK BIOPHARMACEUTICALS CO., LTD., priority 2019, dated 2025).

Where a name gives a salt, the structure may show the parent alone.

By IC50 is commonly meant the concentration needed to halve the response being measured.

In the assay the target is T1, PRMT5-MEP50 enzyme complex (Homo sapiens, UniProt O14744).
T1 construct: purchased BPS Bioscience (USA) 51045
T1 sequence (O14744 2-637 limits assumed): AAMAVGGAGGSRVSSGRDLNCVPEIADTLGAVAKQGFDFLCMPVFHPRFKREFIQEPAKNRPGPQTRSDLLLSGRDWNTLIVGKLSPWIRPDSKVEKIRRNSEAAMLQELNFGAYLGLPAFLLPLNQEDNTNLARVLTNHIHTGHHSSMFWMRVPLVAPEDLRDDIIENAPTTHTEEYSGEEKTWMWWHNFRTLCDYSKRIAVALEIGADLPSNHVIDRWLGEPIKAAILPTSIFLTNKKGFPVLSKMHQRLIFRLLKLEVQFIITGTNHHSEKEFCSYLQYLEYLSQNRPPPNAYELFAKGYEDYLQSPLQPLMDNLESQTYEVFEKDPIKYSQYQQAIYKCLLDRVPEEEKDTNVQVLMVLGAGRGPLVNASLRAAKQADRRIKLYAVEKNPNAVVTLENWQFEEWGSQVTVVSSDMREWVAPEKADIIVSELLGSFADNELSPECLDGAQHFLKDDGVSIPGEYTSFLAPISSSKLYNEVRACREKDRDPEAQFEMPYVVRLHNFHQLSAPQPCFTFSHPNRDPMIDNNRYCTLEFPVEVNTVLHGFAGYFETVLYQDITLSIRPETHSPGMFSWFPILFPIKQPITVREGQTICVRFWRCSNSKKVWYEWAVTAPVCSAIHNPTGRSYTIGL
T1 sequence (Q9BQA1 2-342 partner limits assumed): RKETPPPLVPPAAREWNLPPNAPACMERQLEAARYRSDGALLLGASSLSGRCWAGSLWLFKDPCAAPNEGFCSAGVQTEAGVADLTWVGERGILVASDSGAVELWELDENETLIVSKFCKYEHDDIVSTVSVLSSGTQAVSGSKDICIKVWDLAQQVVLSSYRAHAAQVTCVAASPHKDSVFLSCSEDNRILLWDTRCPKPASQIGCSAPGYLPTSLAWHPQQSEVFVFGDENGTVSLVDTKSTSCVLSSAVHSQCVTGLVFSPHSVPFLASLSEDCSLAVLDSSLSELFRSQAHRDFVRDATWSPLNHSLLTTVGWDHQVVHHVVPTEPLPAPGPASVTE
Put plainly: In vitro PRMT5 enzyme activity assay (methylation of histone H4 arginine H4R3, ELISA absorbance at 450 nm). In kind it is biochemical. The conditions noted are these: S-adenosylmethionine, histone H4 peptide, 2 hours at room temperature, 8 points 10 μM to 0.128 nM. As for the experimental part:
Method for Measuring Enzyme Activity
In vitro assay: PRMT5-MEP50 enzyme complex, cofactor S-adenosylmethionine (SAM) and histone H4 peptide were reacted in vitro, and methylation of arginine (H4R3) —which is the third amino acid of histone H4—was measured in order to measure the enzyme activity of PRMT5.
Reagents: PRMT5-MEP50 enzyme complex (Catalog No. 51045), blocking buffer (52100-B), histone methyltransferase reaction buffer 2 (4×HMT assay buffer 2, Catalog No. 52170), and primary antibody (primary antibody 4-3, Catalog No. 52150) were purchased from BPS Bioscience (USA). The histone H4 peptide (1-20 amino acids) was custom made by Komabiotech (Korea) and used. S-adenosylmethionine was purchased from NEB (New England Biolabs, USA, Catalog No. B9003S). Plates for coating histone H4 peptide, washing buffer and color development reagent were purchased from the following vendors: Plate (Immobilizer™-Amino Plate, NUNC, Denmark, Catalog No. 436023), carbonate-bicarbonate buffer (Sigma-Aldrich, USA, Catalog No. C3041), washing buffer (10×TBST, Biosesang, Korea, Catalog No. T2005), TMB ELISA substrate (Abcam, UK, Catalog No. ab210902), horseradish peroxidase (HRP)-conjugated antibody (Abcam, UK, Catalog No. ab6721).
Experimental procedure: The histone H4 peptide was diluted with carbonate-bicarbonate buffer and prepared to 100 μg/mL, and then dispensed onto the plate per 100 μL and reacted at 37° C. for 1 hour. PRMT5-MEP50 enzyme complex and S-adenosylmethionine were diluted with histone methyltransferase reaction buffer to prepare 5 μg/mL and 2 μM, respectively, and then 20 μL of PRMT5-MEP50 enzyme complex and 25 μL of S-adenosylmethionine were dispensed onto the plate prepared above. 5 μL of the compound diluted with 10% dimethyl sulfoxide solution was added thereto and reacted at room temperature for 2 hours (final volume=50 μL). The concentration of the compound was diluted 1:5 from 10 μM until the lowest concentration of 0.128 nM, and 8 points were used for the test. After preparing the primary antibody by diluting 1:2000 with blocking buffer, 100 μL was added to the plate and reacted at room temperature for 1 hour. After preparing horseradish peroxidase-conjugated antibody by diluting 1:10,000 with blocking buffer, 100 μL was added to the plate and reacted at room temperature for 1 hour. 100 μL of TMB substrate was added and reacted for 3 minutes at room temperature, and 100 μL of 1 N sulfuric acid was then added to terminate the reaction. Then, the absorbance at 450 nm was measured to calculate the IC50 value of the compound. (+++: 1 to 100 nM, ++: greater than 100 to 1,000 nM, +: greater than 1,000 to 10,000 nM)
A general note: An ELISA detects its analyte on a solid surface through an enzyme-linked reagent.
Consider `O=C1c2ccc(NC3CCNCC3)cc2CCN1C[C@H](O)CN1CCc2ccccc2C1` [Example 34, 2-[(2R)-3-(3,4-dihydro-1H-isoquinolin-2-yl)-2-hydroxy-propyl]-6-(4-piperidylamino)-3,4-dihydroisoquinolin-1-one], for which the IC50 lay within 1000 to 10000 nM. Next, `O=C1c2ccc(OC3CCOCC3)cc2CCN1C[C@H](O)CN1CCc2ccccc2C1` [Example 91, 2-[(2R)-3-(3,4-dihydro-1H-isoquinolin-2-yl)-2-hydroxy-propyl]-6-tetrahydropyran-4-yloxy-3,4-dihydroisoquinolin-1-one]: 1 to 100 nM; `CC(=O)N1CCN(c2ccc3c(c2)C2(CC2)CN(C[C@H](O)CN2CCc4ccccc4C2)C3=O)CC1` [Example 105, 6-(4-acetylpiperazin-1-yl)-2-[(2R)-3-(3,4-dihydro-1H-isoquinolin-2-yl)-2-hydroxy-propyl]spiro[3H-isoquinoline-4,1′-cyclopropane]-1-one]: 1 to 100 nM.

With `COCCN(C)C1CCN(c2ccc3c(c2)CCN(C[C@H](O)CN2CCc4ccccc4C2)C3=O)CC1` [Example 120, 2-[(2R)-3-(3,4-dihydro-1H-isoquinolin-2-yl)-2-hydroxy-propyl]-6-[4-[2-methoxyethyl(methyl)amino]-1-piperidyl]-3,4-dihydroisoquinolin-1-one], the IC50 lay within 1 to 100 nM. The compound `CN(C)C1CCN(c2ccc3c(c2)CCN(C[C@H](O)CN2CCc4ccccc4C2)C3=O)CC1` [Example 110, 2-[(2R)-3-(3,4-dihydro-1H-isoquinolin-2-yl)-2-hydroxy-propyl]-6-[4-(dimethylamino)-1-piperidyl]-3,4-dihydroisoquinolin-1-one] displayed an IC50 of 100 to 1000 nM. `O=C1c2ccc(N3CCC3=O)cc2CCN1C[C@H](O)CN1CCc2ccccc2C1` [Example 20, 2-[(2R)-3-(3,4-dihydro-1H-isoquinolin-2-yl)-2-hydroxy-propyl]-6-(2-oxoazetidin-1-yl)-3,4-dihydroisoquinolin-1-one]: the IC50 lay in the range of 100 to 1000 nM. Next, `CC(C)(C)OC(=O)N1CCN(c2ccc3c(c2)CCN(C[C@H](O)CN2CCc4ccccc4C2)C3=O)CC1` [Example 53, tert-butyl 4-[2-[(2R)-3-(3,4-dihydro-1H-isoquinolin-2-yl)-2-hydroxy-propyl]-1-oxo-3,4-dihydroisoquinolin-6-yl]piperazine-1-carboxylate]: 1 to 100 nM; `CN(C)C1CCN(c2ccc3c(c2)C(C)(C)CN(C[C@H](O)CN2CCc4ccccc4C2)C3=O)CC1` [Example 126, 2-[(2R)-3-(3,4-dihydro-1H-isoquinolin-2-yl)-2-hydroxy-propyl]-6-[4-(dimethylamino)-1-piperidyl]-4,4-dimethyl-3H-isoquinolin-1-one; dihydrochloride]: 1 to 100 nM; `O=C1c2ccc(N3CCC(N4CCCC4)CC3)cc2CCN1C[C@H](O)CN1CCc2ccccc2C1` [Example 106, 2-[(2R)-3-(3,4-dihydro-1H-isoquinolin-2-yl)-2-hydroxy-propyl]-6-(4-pyrrolidin-1-yl-1-piperidyl)-3,4-dihydroisoquinolin-1-one]: 1 to 100 nM.

Compound `CC(C)(C)C(=O)N1CCN(c2ccc3c(c2)CCN(C[C@H](O)CN2CCc4ccccc4C2)C3=O)CC1` [Example 71, 2-[(2R)-3-(3,4-dihydro-1H-isoquinolin-2-yl)-2-hydroxy-propyl]-6-[4-(2,2-dimethylpropanoyl)piperazin-1-yl]-3,4-dihydroisoquinolin-1-one] yielded an IC50 of 1 to 100 nM.

`O=C1c2ccc(-c3cccnc3)cc2CCN1C[C@H](O)CN1CCc2ccccc2C1` [Example 9, 2-[(2R)-3-(3,4-dihydro-1H-isoquinolin-2-yl)-2-hydroxy-propyl]-6-(3-pyridyl)-3,4-dihydroisoquinolin-1-one] showed a half-maximal inhibitory concentration (IC50) of 1 to 100 nM. `CC(=O)N1CCCC(Nc2ccc3c(c2)CCN(C[C@H](O)CN2CCc4ccccc4C2)C3=O)C1` (stereo partly drawn) [Example 93, 6-[(1-acetyl-3-piperidyl)amino]-2-[(2R)-3-(3,4-dihydro-1H-isoquinolin-2-yl)-2-hydroxy-propyl]-3,4-dihydroisoquinolin-1-one] showed an IC50 of 1 to 100 nM. `CC(C)(C)C(=O)Nc1ccc2c(c1)CCN(C[C@H](O)CN1CCc3ccccc3C1)C2=O` [Example 19, N-[2-[(2R)-3-(3,4-dihydro-1H-isoquinolin-2-yl)-2-hydroxy-propyl]-1-oxo-3,4-dihydroisoquinolin-6-yl]-2,2-dimethylpropanamide] came in with an IC50 of 100 to 1000 nM. `CN1CCCC(Oc2ccc3c(c2)CCN(C[C@H](O)CN2CCc4ccccc4C2)C3=O)C1` (stereo partly drawn) [Example 139, 2-[(2R)-3-(3,4-dihydro-1H-isoquinolin-2-yl)-2-hydroxypropyl]-6-[(1-methyl-3-piperidyl)oxy]-3,4-dihydroisoquinolin-1-one]: the IC50 lay within 1 to 100 nM. Next, `O=C1c2ccc(N3CCOCC3)cc2C(F)(F)CN1C[C@H](O)CN1CCc2ccccc2C1` [Example 132, 2-[(2R)-3-(3,4-dihydro-1H-isoquinolin-2-yl)-2-hydroxy-propyl]-4,4-difluoro-6-morpholino-3H-isoquinolin-1-one]: 1000 to 10000 nM; `O=C1c2ccc(N3CCOCC3)nc2CCN1C[C@H](O)CN1CCc2ccccc2C1` [Example 89, 6-[(2R)-3-(3,4-dihydro-1H-isoquinolin-2-yl)-2-hydroxy-propyl]-2-morpholino-7,8-dihydro-1,6-naphthyridin-5-one]: 1 to 100 nM. With `CC1CC(C)CN(c2ccc3c(c2)CCN(C[C@H](O)CN2CCc4ccccc4C2)C3=O)C1` (stereo partly drawn) [Example 28, 2-[(2R)-3-(3,4-dihydro-1H-isoquinolin-2-yl)-2-hydroxy-propyl]-6-(3,5-dimethyl-1-piperidyl)-3,4-dihydroisoquinolin-1-one], the IC50 was 100 to 1000 nM. `CC(=O)NC1CCN(c2ccc3c(c2)CCN(C[C@H](O)CN2CCc4ccccc4C2)C3=O)CC1` [Example 92, N-[1-[2-[(2R)-3-(3,4-dihydro-1H-isoquinolin-2-yl)-2-hydroxy-propyl]-1-oxo-3,4-dihydroisoquinolin-6-yl]-4-piperidyl]acetamide] registered a half-inhibitory concentration (IC50) of 100 to 1000 nM. Turning to `CC(=O)N1CC2CC1CN2c1ccc2c(c1)CCN(C[C@H](O)CN1CCc3ccccc3C1)C2=O` (stereo partly drawn) [Example 81, 6-(5-acetyl-2,5-diazabicyclo[2.2.1]heptan-2-yl)-2-[(2R)-3-(3,4-dihydro-1H-isoquinolin-2-yl)-2-hydroxy-propyl]-3,4-dihydroisoquinolin-1-one], the IC50 lay within 1 to 100 nM.

`CCN(CC)C1CCN(c2ccc3c(c2)CCN(C[C@H](O)CN2CCc4ccccc4C2)C3=O)CC1` [Example 118, 6-[4-(diethylamino)-1-piperidyl]-2-[(2R)-3-(3,4-dihydro-1H-isoquinolin-2-yl)-2-hydroxy-propyl]-3,4-dihydroisoquinolin-1-one] displayed an IC50 of 100 to 1000 nM. In the case of `CCC(=O)N1CCN(c2ccc3c(c2)CCN(C[C@H](O)CN2CCc4ccccc4C2)C3=O)CC1` [Example 69, 2-[(2R)-3-(3,4-dihydro-1H-isoquinolin-2-yl)-2-hydroxy-propyl]-6-(4-propanoylpiperazin-1-yl)-3,4-dihydroisoquinolin-1-one] it was 100 to 1000 nM; in that of `CC1CN(c2ccc3c(c2)CCN(C[C@H](O)CN2CCc4ccccc4C2)C3=O)CC(C)N1` (stereo partly drawn) [Example 29, 2-[(2R)-3-(3,4-dihydro-1H-isoquinolin-2-yl)-2-hydroxy-propyl]-6-(3,5-dimethylpiperazin-1-yl)-3,4-dihydroisoquinolin-1-one], 1 to 100 nM.
